{"source": "patent US9856534B2", "about": "“Selecting use of proteasome inhibitors based on NF-κB2 sequence” (Emory University, priority 2011, dated 2018)", "type_in_all_cases": "cell-based", "key": {"[1]": {"system": "KMS11", "experiment": "Bortezomib sensitivity of MM cell line KMS11"}, "[2]": {"system": "RPMI", "experiment": "Bortezomib sensitivity of MM cell line RPMI"}, "[3]": {"system": "OPM and KMS11 multiple myeloma cell lines", "experiment": "Live cell count (Yo-pro-1 iodide/PI negative) in MM cell lines stably expressing NF-κB2 constructs, treated with bortezomib", "details": "titrating doses, 24 hours; live cells", "method": "A) Two multiple myeloma cell lines, OPM and KMS11, stably expressing the full length NF-κB2 (p100), NF-κB2-ankyrin domains, NF-κB2-death domain were generated using a pLenti6.2/V5-DEST lentivirus. Cells were then treated at titrating doses of bortezomib. After 24 hours the cells were harvested and stained with Yo-pro-1 iodide and propidium Iodide (PI, both from Invitrogen, Grand Island, N.Y.). Live cells were measured using a ImageXpress 5000A Automated Acquisition and Analysis System (Molecular Devices, Sunnyvale, Calif.), quantitating for Yo-pro-1 iodide and PI negative cells. B) OPM1 and RPMI cells stably expressing NF-κB2 (p100), NF-κB2-ankyrin domains or control vector (LacZ) were treated with 10 nM of bortezomib for 24 hours. Cells were harvested and Western blot was performed to assay for caspase 9, cleaved caspase 9 and 3 and actin.\nFor apoptosis studies, 10^4 cells were treated with titrating doses of doxorubicin (doses: […], Sigma) or rituximab (titrating doses: 1.5, 2.5, 5, 10 and 20 μg/mL, Biogen Idec Inc). Twenty four hours later cells were stained with Yo-pro-1 and Propidium Iodide (Invitrogen). Live cells were measured using a ImageXpress 5000A Automated Acquisition and Analysis System (Molecular Devices, Sunnyvale, Calif.), quantitating for Yo-pro-1 or PI negative cells.\nSequences of NF-κB2-shRNA are known. […]"}, "[4]": {"system": "Daudi and Raji lymphoma cell lines", "experiment": "Apoptosis by flow cytometry (Annexin V) in lymphoma cell lines expressing p100 siRNA, treated with bortezomib", "method": "(A) Two lymphoma cell lines, Daudi and Raji, expressing a p100 or a p105 siRNA were treated with titrating doses of bortezomib for 24 hours. […] Expression of p100 siRNA in two lymphoma cell lines, Daudi and Raji, reduce the protein levels of cleaved caspase 3 and 9. Western blot of Daudi and Raji cell lines expression p100 siRNA or luciferase were performed after 24 hours of treatment with titrating does of bortezomib.\nSequences of NF-κB2-shRNA are known. The sense shRNA oligonucleotide probes were as follows: p100, […] (SEQ ID NO: 12). Luciferase (Luc) shRNA plasmid was provided by S. Stewart. Short interfering hairpin RNA were expressed under U6 human promoter and were generated using PLKopuro.1. NF-κB2, NF-κB2-ankirin repeats region, NF-κB2-death domain and LcZ (control) were expressed under a CMV promoter and generated using a pLenti6/V5-DEST (Invitrogen Life Technologies). Recombinant lentiviruses were generated in 293T cells, for infection of all MM cell lines. Stable cell lines expressing shRNAs or the protein of interest were obtained after selecting cells with 2 μg/mL puromycin or 10 μg/mL, respectively. Cells were used for experiments two weeks after infection."}, "[5]": {"system": "NF-κB", "experiment": "NF-κB-luciferase reporter assay", "details": "Daudi and SC lymphoma cell lines; titrating doses, 24 hours", "method": "Daudi and SC cell lines were transfected with a NF-κB-luciferase reporter construct (1 μg of DNA). Twenty four hours post-transfection, cells were treated with titrating doses of bortezomib. After 24 hours of treatment, cells were harvested and lysed with RIPA buffer. Twenty microliters of the lysate were mixed with Luciferase assay substrate (Promega, Madison, Wis.) followed by Stop & Glo reagent. Luciferase activity was then measured in a luminometer."}}, "data": [{"smiles": "CC(C)C[C@H](NC(=O)[C@H](Cc1ccccc1)NC(=O)c1cnccn1)B(O)O", "note": "[bortezomib]", "values": [{"measurement": "bortezomib sensitivity of cell line", "setting": "[1]", "value": "resistant"}, {"measurement": "bortezomib sensitivity of cell line", "setting": "[2]", "value": "resistant"}, {"measurement": "sensitivity to bortezomib on expression of p100 (NF-κB2), NF-κB2-ankyrin domains and NF-κB2-death domain", "setting": "[3]", "value": "restores sensitivity"}, {"measurement": "bortezomib sensitivity of lymphoma cells", "setting": "[4]", "value": "sensitive"}, {"measurement": "bortezomib-induced apoptosis on p100 siRNA expression", "setting": "[4]; titrating doses, 24 hours, Annexin V", "value": "reduces"}, {"measurement": "effect on NF-kB luciferase reporter activity", "setting": "[5]", "value": "NF-kB inhibitory effects"}]}]}
